Patent publication US20250092066A1, “SUBSTITUTED BICYCLIC HETEROCYCLES AS MALT-1 INHIBITORS” (AURIGENE ONCOLOGY LIMITED, priority 2022, published 2025)

Target: MALT-1 (Isoform1) (Homo sapiens (Human), UniProt Q9UDY8)
Experiment: Biochemical fluorescent assay of MALT-1 (Isoform1) enzyme inhibition
Conditions: recombinant MALT-1 (Isoform1); for inhibition at 1 µM: compound at 1 μM, read-out: Percent Inhibition (@ 1 μM); for IC50: 50 μM AC-LRSR-MAC substrate, 240 min
Experimental: The potency of compounds to inhibit MALT-1 (Isoform1) enzyme was tested in a Fluorescent assay using recombinant MALT-1 (Isoform1, aa-840) generated in-house. The assay buffer was 50 mM HEPES (pH 7.5), 100 mM NaCl, 10 mM DTT, 1 mM EDTA, 0.9 M sodium citrate, 0.01% CHAPS. 1.5 nM of MALT-1 enzyme was incubated with various concentrations of test compounds ([…]) (1% DMSO) in the presence of buffer for 30 minutes at 30° C. The protease reaction was initiated by adding 50 μM of AC-LRSR-MAC (Peptide International, USA) substrate and incubated for 240 min. After 240 min incubation, fluorescence emission of the samples at 460 nm was measured at an excitation of 355 nm. The percent inhibition was calculated using the following formula: […]. IC50 values were determined by fitting the dose-response data to sigmoidal curve fitting equation using Graph pad prism software VS.

Chain of MALT-1 (Isoform1) (Q9UDY8 whole entry, canonical isoform): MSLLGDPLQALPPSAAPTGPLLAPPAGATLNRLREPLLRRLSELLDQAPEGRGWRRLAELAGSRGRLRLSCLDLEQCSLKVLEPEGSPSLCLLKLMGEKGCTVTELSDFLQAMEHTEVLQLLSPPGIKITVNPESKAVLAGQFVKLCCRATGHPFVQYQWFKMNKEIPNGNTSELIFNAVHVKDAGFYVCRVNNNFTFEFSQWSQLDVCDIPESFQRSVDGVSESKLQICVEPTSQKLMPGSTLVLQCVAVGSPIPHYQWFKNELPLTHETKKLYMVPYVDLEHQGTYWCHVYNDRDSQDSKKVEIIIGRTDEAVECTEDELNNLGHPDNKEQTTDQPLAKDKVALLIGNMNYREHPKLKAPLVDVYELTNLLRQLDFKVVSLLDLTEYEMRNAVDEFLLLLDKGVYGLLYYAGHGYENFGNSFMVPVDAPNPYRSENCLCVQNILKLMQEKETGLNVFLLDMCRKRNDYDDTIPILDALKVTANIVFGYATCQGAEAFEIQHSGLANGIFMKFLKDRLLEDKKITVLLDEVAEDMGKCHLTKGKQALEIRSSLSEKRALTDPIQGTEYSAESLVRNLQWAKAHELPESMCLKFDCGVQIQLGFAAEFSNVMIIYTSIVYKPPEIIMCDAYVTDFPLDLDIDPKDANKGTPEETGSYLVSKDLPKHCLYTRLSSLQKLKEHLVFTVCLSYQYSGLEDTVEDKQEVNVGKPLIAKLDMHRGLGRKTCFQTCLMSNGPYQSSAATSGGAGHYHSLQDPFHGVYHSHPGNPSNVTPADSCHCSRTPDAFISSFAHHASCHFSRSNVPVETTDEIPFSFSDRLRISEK

SMILES | inhibition at 1 µM | IC50
CO[C@@H](C)c1c(NC(=O)Nc2cc(F)c3ncnn3c2)cnc2cc(C)nn12 [Example 28] | 84% | > 250 nM
COC(C)c1c(NC(=O)Nc2cc(Cl)c3ncnn3c2)cnc(C)c1Br (stereo not drawn) [Example 34b, 1-(5-bromo-4-(1-methoxyethyl)-6-methylpyridin-3-yl)-3-(8-chloro-[1,2,4]triazolo[1,5-a]pyridin-6-yl)urea] | 33% | –
COC(C)c1c(NC(=O)Nc2cc(F)c3nc(C)nn3c2)cnc(C)c1Br (stereo not drawn) [Example 36] | 69% | > 250 nM
COC(C)c1c(NC(=O)Nc2cc(F)c3nc(C)nn3c2)cnc(C)c1Cl (stereo not drawn) [Example 37] | 48% | > 250 nM
Cc1nc2c(C3CC3)c(NC(=O)Nc3cc(Cl)c4ncnn4c3)cnc2s1 [Example 38, 1-(8-chloro-[1,2,4]triazolo[1,5-a]pyridin-6-yl)-3-(7-cyclopropyl-2-methylthiazolo[5,4b]pyridin-6-yl)urea] | 62% | > 250 nM
COC(C)c1c(NC(=O)Nc2cc(F)c3nc(C)nn3c2)cnc2sc(C)nc12 (stereo not drawn) [Example 39, 1-(8-fluoro-2-methyl-[1,2,4]triazolo[1,5-a]pyridin-6-yl)-3-(7-(1-methoxyethyl)-2-methylthiazolo[5,4-b]pyridin-6-yl)urea] | 77% | > 250 nM
CO[C@@H](C)c1c(NC(=O)Nc2cc(F)c3nc(C)cn3c2)cnc2cc(Cl)nn12 [Example 41] | 69% | > 250 nM

Now from value to molecule:

inhibition at 1 µM | IC50 | SMILES
83% | 51 to 250 nM | CO[C@@H](C)c1c(NC(=O)Nc2cc(F)c3nc(CN(C)C)nn3c2)cnc2cc(Cl)nn12 [Example 29]
96% | < 50 nM | CO[C@@H](C)c1c(NC(=O)Nc2cc(Cl)c3nc(Cl)nn3c2)cnc2cc(Cl)nn12 [Example 30]
96% | 51 to 250 nM | CO[C@@H](C)c1c(NC(=O)Nc2cc(Cl)c3nccn3c2)cnc2cc(Cl)nn12 [Example 40]
79% | 51 to 250 nM | CO[C@@H](C)c1c(NC(=O)Nc2cc(F)c3nc(C)c(C)n3c2)cnc2cc(Cl)nn12 [Example 42]
86% | 51 to 250 nM | CO[C@@H](C)c1c(NC(=O)Nc2cc(F)c3nccn3c2)cnc2cc(Cl)nn12 [Example 43]
90% | 51 to 250 nM | CO[C@@H](C)c1c(NC(=O)Nc2cc(F)c3ncc(C)n3c2)cnc2cc(Cl)nn12 [Example 44]
78% | 51 to 250 nM | CO[C@@H](C)c1c(NC(=O)Nc2cc(F)c3ncnn3c2)cnc2cc(C(F)F)nn12 [Example 45]
40% | < 50 nM | CO[C@@H](C)c1c(NC(=O)Nc2cc(F)c3nc(C)nn3c2)cnc2cc(C3CC3)nn12 [Example 46]
54% | < 50 nM | CO[C@@H](C)c1c(NC(=O)Nc2cc(F)c3nc(C)nn3c2)cnc2cc(C#N)nn12 [Example 47]
86% | 51 to 250 nM | CO[C@@H](C)c1c(NC(=O)Nc2cc(F)c3nc(C(=O)N4CCCC4)nn3c2)cnc2cc(Cl)nn12 [Example 48]
